Assay results as given in patent US5244883A, “Nonapeptide bombesin antagonists” (The Administrators of the Tulane Educational Fund, priority 1990, dated 1993).
Where a SMILES comes first, the peptide text is derived from it. [ ]: non-standard residue; d: D form. The star is where a group is joined. His(τ-Bzl) = N[C@@H](Cc1cn(Cc2ccccc2)cn1)C(=O)O; X2 = CC(C)C[C@@H](CN[C@@H](CC(C)C)C(N)=O)N*; dTpi = O=C(O)[C@H]1Cc2c([nH]c3ccccc23)CN1

Molecular target: T1, GRP receptors on Swiss 3T3 cells (Mus musculus, UniProt P21729)
T1 construct: conducted in 24-well tissue culture plates (GIBCO) using Swiss 3T3 cells; endogenous in cells; host or cells: Murine Swiss 3T3 fibroblasts (intact confluent, quiescent cells)
T1 sequence (P21729 whole entry): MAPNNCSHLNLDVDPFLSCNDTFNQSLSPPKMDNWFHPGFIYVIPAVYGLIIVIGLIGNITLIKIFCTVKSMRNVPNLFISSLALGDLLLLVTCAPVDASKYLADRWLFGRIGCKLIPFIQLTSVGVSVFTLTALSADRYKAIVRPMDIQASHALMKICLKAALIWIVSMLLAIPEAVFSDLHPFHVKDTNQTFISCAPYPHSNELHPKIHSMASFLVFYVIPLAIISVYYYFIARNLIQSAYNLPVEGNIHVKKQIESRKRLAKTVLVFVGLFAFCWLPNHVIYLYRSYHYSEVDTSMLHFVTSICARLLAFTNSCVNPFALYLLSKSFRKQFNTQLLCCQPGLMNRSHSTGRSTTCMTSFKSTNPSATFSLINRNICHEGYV
Assay: Receptor binding assay: displacement of 125I-GRP(14-27) on Swiss 3T3 cells
Parameters: species or system Murine
Details: for Ka: association constant, N.D.=NO DISPLACEMENT; for Ka / Kd: 0.2 nM 125I-GRP(14-27), Swiss 3T3 cells, 37° C. 30 min; for IC50: calculated by Cheng and Prussoff equation IC50=Kc(1+L/Kh), 0.2 nM radioligand
Protocol: (A) Receptor Binding Assay
Binding of ^125 I-GRP(14-27) and displacement by bombesin antagonists were conducted in 24-well tissue culture plates (GIBCO) using Swiss 3T3 cells. Murine Swiss 3T3 fibroblasts were maintained by weekly passage in DMEM containing 10% FCBS and antimycotics. Cultures were incubated in 5% CO2 in air at 37° C. The wells were seeded with 10^5 cells/well (viability >95%), grown to confluence and quiescency. The binding procedure was conducted 7 days after seeding. The cells were washed 2 times with 0.5 ml of binding buffer (Dulbecco's modified Eagle's medium containing […] (pH 7.4), 0.2% BSA and 100 mcg/ml bacitracin). The cells were then incubated with 0.2 nM ^125 I-GRP (14-27) in the presence or absence of different concentrations of antagonists (6×10^-11 -6×10^-6 M, total volume 0.4 ml).
According to Zachary and Rozengurt (1985) and Layton et al., (1988), binding of ^125 I-GRP at 37° C. reached a maximum value at 30 min and decreased afterwards; so, the cells were incubated at 37° C. for 30 min. After that, the cells were washed 2 times with ice-cold (4° C.) binding buffer and 2 times with the ice-cold phosphate-buffered saline (PBS,mM): NaCl 138, KCl 2.8, Na2 HPO4 8, KH2 PO4 1.45, CaCl2 0.91, MgCl2 0.49. Washed cultures were extracted in 0.5 ml of 0.5M NaOH and transferred to tubes for counting. The wells were washed once with 0.5 ml distilled water (sterile), and the washing were added to the appropriate tubes. Then the radio-activity of the samples was counted in an automatic gamma counter (Micromedic System, Inc., Huntsville, Ala.).
The Ligand - PC computerized curve fitting program of Munson and Rodbard was used to determine the types of receptor binding, dissociation constant (Kd), association constant (Ka), the maximal binding capacity of receptors (Bmax) and half-maximal inhibition (IC50).
IC50 values represent concentrations of antagonists causing half-maximal inhibition of 0.2 nM GRP(14-27) stimulated growth. Dissociation constant and maximal binding capacity of ^125 I-GRP (14-27) in our experiments were 1.32 nm and 0.769 pm/mg protein, respectively, which were similar to those reported for ^125 I-GRP and ^125 I-Tyr^4 -bombesin. Binding characteristics of GRP receptors on 3T3 cells in these experiments agree well with values obtained for bombesin binding to pancreatic acinar (Jensen et al., 1978) and pituitary cells (Westendorf and Schonbrunn, 1983).
IC50 is the concentration of unlabelled ligand that displaced half the specific radioligand binding. It is calculated according to the equation of Cheng and Prussoff (1973): IC50 =Kc (1+L/Kh), where Kc and Kh are the dissociation constants of unlabelled (cold) and labelled (hot) ligand respectively, and L is the concentration of radioligand used.

maximal binding capacity of 125I-GRP(14-27) (radioligand on Swiss 3T3 cells) [pm/mg protein] | Ka [nM⁻¹] | Kd [nM] | IC50 [nM] | Structure (SMILES)
0.769 | – | – | – | CSCC[C@H](NC(=O)[C@H](CC(C)C)NC(=O)[C@H](Cc1c[nH]cn1)NC(=O)CNC(=O)[C@@H](NC(=O)[C@H](C)NC(=O)[C@H](Cc1c[nH]c2ccccc12)NC(=O)[C@H](Cc1c[nH]cn1)NC(=O)[C@H](CC(N)=O)NC(=O)CNC(=O)[C@H](CCCNC(=N)N)NC(=O)[C@@H]1CCCN1C(=O)[C@H](Cc1ccc(O)cc1)NC(=O)[C@@H](N)CCSC)C(C)C)C(N)=O [125I-GRP (14-27), reference compound]
– | 0.758 ± 0.23 | – | – | CSCC[C@H](NC(=O)[C@H](CC(C)C)NC(=O)[C@H](Cc1c[nH]cn1)NC(=O)CNC(=O)[C@@H](NC(=O)[C@H](C)NC(=O)[C@H](Cc1c[nH]c2ccccc12)NC(=O)[C@H](Cc1c[nH]cn1)NC(=O)[C@H](CC(N)=O)NC(=O)CNC(=O)[C@H](CCCNC(=N)N)NC(=O)[C@@H]1CCCN1C(=O)[C@H](Cc1ccc(O)cc1)NC(=O)[C@@H](N)CCSC)C(C)C)C(N)=O [GRP(14-27), reference compound]
– | – | 10.6 | 12.2 | CC(C)C[C@@H](CN[C@@H](CC(C)C)C(N)=O)NC(=O)[C@H](Cc1c[nH]cn1)NC(=O)CNC(=O)[C@@H](NC(=O)[C@H](C)NC(=O)[C@H](Cc1c[nH]c2ccccc12)NC(=O)[C@H](CCC(N)=O)NC(=O)[C@H](N)Cc1c[nH]c2ccccc12)C(C)C [Peptide 2, D--Trp--Gln--Trp--Ala--Val--Gly--His--Leu-psi-Leu--NH2]
– | – | 8 | 9.2 | CC(C)C[C@@H](CN[C@@H](CC(C)C)C(N)=O)NC(=O)[C@H](Cc1c[nH]cn1)NC(=O)CNC(=O)[C@@H](NC(=O)[C@H](C)NC(=O)[C@H](Cc1c[nH]c2ccccc12)NC(=O)[C@H](CCC(N)=O)NC(=O)[C@H]1Cc2c([nH]c3ccccc23)CN1)C(C)C [Peptide 5, D--Tpi--Gln--Trp--Ala--Val--Gly--His--Leu-psi-Leu--NH2]
– | 0.014 | – | – | CC(C)C[C@@H](CN[C@@H](CC(C)C)C(N)=O)NC(=O)[C@H](Cc1c[nH]cn1)NC(=O)CNC(=O)[C@@H](NC(=O)[C@H](C)NC(=O)[C@H](Cc1c[nH]c2ccccc12)NC(=O)[C@H](Cc1cn(Cc2ccccc2)cn1)NC(=O)[C@H]1Cc2c([nH]c3ccccc23)CN1)C(C)C [Peptide 8, D--Tpi--His(Bz)--Trp--Ala--Val--Gly--His--Leu-psi-Leu--NH2] (H-[dTpi][His(τ-Bzl)]WAVGH-X2)
– | – | 1 | 1.15 | CC(C)C[C@@H](CN[C@@H](Cc1ccccc1)C(N)=O)NC(=O)[C@H](Cc1c[nH]cn1)NC(=O)CNC(=O)[C@@H](NC(=O)[C@H](C)NC(=O)[C@H](Cc1c[nH]c2ccccc12)NC(=O)[C@H](CCC(N)=O)NC(=O)[C@H](N)Cc1c[nH]c2ccccc12)C(C)C [Peptide 10, D--Trp--Gln--Trp--Ala--Val--Gly--His--Leu-psi-Phe--NH2]
– | – | 5 | 5.75 | CNC(=O)CC[C@H](NC(=O)[C@H](N)Cc1c[nH]c2ccccc12)C(=O)N[C@@H](Cc1c[nH]c2ccccc12)C(=O)N[C@@H](C)C(=O)N[C@H](C(=O)NCC(=O)N[C@@H](Cc1c[nH]cn1)C(=O)N[C@H](CN[C@@H](Cc1ccccc1)C(N)=O)CC(C)C)C(C)C [Peptide 11, D--Trp--Glu(MeNH)--Trp--Ala--Val--Gly--His--Leu-psi-Phe--NH2]
– | 0.014 | – | – | CC(C)C[C@@H](CN[C@@H](Cc1ccccc1)C(N)=O)NC(=O)[C@H](Cc1c[nH]cn1)NC(=O)CNC(=O)[C@@H](NC(=O)[C@H](C)NC(=O)[C@H](Cc1c[nH]c2ccccc12)NC(=O)[C@H](CCC(N)=O)NC(=O)[C@H]1Cc2c([nH]c3ccccc23)CN1)C(C)C [Peptide 12, D--Tpi--Gln--Trp--Ala--Val--Gly--His--Leu-psi-Phe--NH2] (HELM PEPTIDE1{[O=C([C@H]1Cc2c([nH]c3ccccc23)CN1)[*:2]].Q.W.A.V.G.H.[CC(C)C[C@@H](CN[C@@H](Cc1ccccc1)C(N)=O)N[*:1]]}$$$$V2.0)
– | – | 1 | 1.2 | CC(C)C[C@@H](CN1Cc2[nH]c3ccccc3c2C[C@H]1C(N)=O)NC(=O)[C@H](Cc1c[nH]cn1)NC(=O)CNC(=O)[C@@H](NC(=O)[C@H](C)NC(=O)[C@H](Cc1c[nH]c2ccccc12)NC(=O)[C@H](CCC(N)=O)NC(=O)[C@H](N)Cc1ccccc1)C(C)C [Peptide 17, D--Phe--Gln--Trp--Ala--Val--Gly--His--Leu-psi-Tpi--NH2]
– | – | 4 | 4.6 | CC(C)C[C@@H](CN1Cc2[nH]c3ccccc3c2C[C@H]1C(N)=O)NC(=O)[C@H](Cc1c[nH]cn1)NC(=O)CNC(=O)[C@@H](NC(=O)[C@H](C)NC(=O)[C@H](Cc1c[nH]c2ccccc12)NC(=O)[C@H](CCC(N)=O)NC(=O)[C@H](N)Cc1c[nH]c2ccccc12)C(C)C [Peptide 18, D--Trp--Gln--Trp--Ala--Val--Gly--His--Leu-psi-Tpi--NH2]
– | – | 0.9 | 1.14 | CC(C)C[C@@H](CN1Cc2[nH]c3ccccc3c2C[C@H]1C(N)=O)NC(=O)[C@H](Cc1c[nH]cn1)NC(=O)CNC(=O)[C@@H](NC(=O)[C@H](C)NC(=O)[C@H](Cc1c[nH]c2ccccc12)NC(=O)[C@H](CCC(N)=O)NC(=O)[C@@H]1Cc2c([nH]c3ccccc23)CN1)C(C)C [Peptide 22, Tpi--Gln--Trp--Ala--Val--Gly--His--Leu-psi-Tpi--NH2]
– | – | 22 | 25.3 | CC(C)C[C@@H](CN1Cc2[nH]c3ccccc3c2C[C@H]1C(N)=O)NC(=O)[C@H](Cc1c[nH]cn1)NC(=O)CNC(=O)[C@@H](NC(=O)[C@H](C)NC(=O)[C@H](Cc1c[nH]c2ccccc12)NC(=O)[C@H](CCC(N)=O)NC(=O)[C@H]1Cc2c([nH]c3ccccc23)CN1)C(C)C [Peptide 26, D--Tpi--Gln--Trp--Ala--Val--Gly--His--Leu-psi-Tpi--NH2]
– | – | 8 | 9.16 | CC(C)C[C@@H](CN[C@@H](Cc1c[nH]c2ccccc12)C(N)=O)NC(=O)[C@H](Cc1c[nH]cn1)NC(=O)CNC(=O)[C@@H](NC(=O)[C@H](C)NC(=O)[C@H](Cc1c[nH]c2ccccc12)NC(=O)[C@H](CCC(N)=O)NC(=O)[C@H](N)Cc1ccccc1)C(C)C [Peptide 28, D--Phe--Gln--Trp--Ala--Val--Gly--His--Leu-psi-Trp--NH2]
– | – | 526 | 605 | CC(C)C[C@@H](CN[C@@H](Cc1c[nH]c2ccccc12)C(N)=O)NC(=O)[C@H](Cc1c[nH]cn1)NC(=O)CNC(=O)[C@@H](NC(=O)[C@H](C)NC(=O)[C@H](Cc1c[nH]c2ccccc12)NC(=O)[C@H](CCC(N)=O)NC(=O)[C@H](N)Cc1c[nH]c2ccccc12)C(C)C [Peptide 29, D--Trp--Gln--Trp--Ala--Val--Gly--His--Leu-psi-Trp--NH2]
– | – | 4 | 5.15 | CC(C)C[C@@H](CN[C@@H](Cc1c[nH]c2ccccc12)C(N)=O)NC(=O)[C@H](Cc1c[nH]cn1)NC(=O)CNC(=O)[C@@H](NC(=O)[C@H](C)NC(=O)[C@H](Cc1c[nH]c2ccccc12)NC(=O)[C@H](CCC(N)=O)NC(=O)[C@H]1Cc2c([nH]c3ccccc23)CN1)C(C)C [Peptide 30, D--Tpi--Gln--Trp--Ala--Val--Gly--His--Leu-psi-Trp--NH2]

Structure (SMILES) | maximal binding capacity of 125I-GRP(14-27) (radioligand on Swiss 3T3 cells) [pm/mg protein] | Ka [nM⁻¹] | Kd [nM] | IC50 [nM]
COc1ccc(CCC(=O)N[C@@H](CCC(N)=O)C(=O)N[C@@H](Cc2c[nH]c3ccccc23)C(=O)N[C@@H](C)C(=O)N[C@H](C(=O)NCC(=O)N[C@@H](Cc2c[nH]cn2)C(=O)N[C@H](CN[C@@H](Cc2c[nH]c3ccccc23)C(N)=O)CC(C)C)C(C)C)cc1 [Peptide 27, Mpp--Gln--Trp--Ala--Val--Gly--His--Leu-psi-Trp--NH2] (HELM PEPTIDE1{[COc1ccc(CCC(=O)[*:2])cc1].Q.W.A.V.G.H.[CC(C)C[C@@H](CN[C@@H](Cc1c[nH]c2ccccc12)C(N)=O)N[*:1]]}$$$$V2.0) | – | 0.013 | – | –
